Experimental data as given in US6573377B1, “Pyrazole derivatives and salts thereof” (Daiichi Pharmaceuticals Co., Ltd., priority 1998, dated 2003).
Converted amounts (≈) assume the structure as drawn. Structures can show the parent of a compound that is named as a salt. Marks after values point to notes of the source that are not given here.

Experiments:
[1] = tested on: human pulmonary carcinoma strain PC-12; assay: Growth inhibition of PC-12 cells, MTT assay (Test Example 1); type: cell-based; details: cultured 3 days with sample, absorbance 540 nm; for GI50: Homo sapiens, PC-12, 72 h
Description: A human pulmonary carcinoma strain PC-12 which had been subcultured using RPMI 1640 containing 10% fetal calf serum, 2 mM of L-glutamine and 100 μg/ml of kanamycin sulfate was inoculated into a 96 well microplate at an inoculum size of 1.0×1.0^3 cells/150 μl/well, and 50 μl/well of a sample was added 24 hours thereafter. The cells were then cultured for 3 days, and a 5 mg/ml solution of MTT (3-(4,5-dimethylthiazol-2-yl)-2,5-diphenyl-2H-tetrazolium bromide) was dispensed in 20 μl/well portions. Four hours thereafter, the culture medium was discarded, dimethyl sulfoxide was dispensed in 150 μl/well portions and the absorbance was measured at 540 nm. The antitumor effect was shown by GI50 value (ng/ml) as a drug concentration which reduced cell growth of the drug-added group to 50% of the control group.

mice (Balb/c) = assay: Coordination inhibition test, RotaRod (Test Example 2); type: in vivo; details: oral; for T/C (coordination inhibition positive mice/tested mice) After 1 hour: 1 hour after administration; for T/C (coordination inhibition positive mice/tested mice) After 4 hours: 4 hours after administration
Description: Rotation speed of the rotary rod (3 cm in diameter) of RotaRod apparatus (mfd. by Natsume Seisaku-sho) was set to 10 rpm, and mice (Balb/c) which stood on the rod for 60 seconds or more were selected. After 1, 4 or 24 hours of the oral administration of each test sample, these mice were put on the rod, and the mice which dropped within 60 seconds were regarded as coordination inhibition action positive.

[2] = tested on: Mouse fibrosarcoma Meth A; assay: Antitumor effect (IR) against subcutaneously transplanted Meth A; type: in vivo, mice; details: judged on the 17th day

## Cc1c(/C=C/CN2CCN3c4cc(F)ccc4OCC3C2)cnn1-c1nccc(N)n1 (racemic) [Example 3, (+/−)-3-[3-[1-(4-Amino-2-pyrimidinyl)-5-methyl-4-pyrazolyl]-2-trans-propen-1-yl]-9-fluoro-2,3,4,4a,5,6-hexahydro-1H-pyrazino[2,1-c]-1,4-benzoxazine hydrochloride]
[1]
  GI50: 20.9 ng/mL

## Cc1c(/C=C/CN2CCN3c4ccccc4CC3C2)cnn1-c1nccc(N)n1 (racemic) [Example 4, (+/−)-2-[3-[1-(4-Amino-2-pyrimidinyl)-5-methyl-4-pyrazolyl]-2-trans-propen-1-yl]-1,2,3,4,10,10a-hexahydropyrazino[1,2-a]indole hydrochloride]
[1]
  GI50: 12.1 ng/mL

## Cc1c(/C=C/CN2CCN3c4cc(F)ccc4CCC3C2)cnn1-c1nccc(N)n1 (single isomer, unassigned; isomer a) [Example 1, 3-[3-[1-(4-Amino-2-pyrimidinyl)-5-methyl-4-pyrazolyl]-2-trans-propen-1-yl]-9-fluoro-2,3,4,4a,5,6-hexahydro-1H-pyrazino[1,2-a]quinoline hydrochloride (isomer A)]
[1]; listed as Compound of Example 1
  GI50 Value: 36.5 ng/mL

## Cc1c(/C=C/CN2CCN3c4cc(F)ccc4CCC3C2)cnn1-c1nccc(N)n1 (single isomer, unassigned; isomer b) [Example 2, 3-[3-[1-(4-amino-2-pyrimidinyl)-5-methyl-4-pyrazolyl]-2-trans-propen-1-yl]-9-fluoro-2,3,4,4a,5,6-hexahydro-1H-pyrazino[1,2-a]quinoline hydrochloride (isomer B)]
[1]; listed as Compound of Example 2
  GI50 Value: 12.1 ng/mL

## Cc1c(/C=C/CN2CCN3c4cc(F)cc(F)c4CCC3C2)cnn1-c1cc(N(C)CCO)nc(N)n1.Cl (single isomer, unassigned; isomer b) [Example 28, 3-[3-[1-[2-Amino-6-[N-methyl-N-(2-hydroxyethyl)amino-4-pyrimidinyl]-5-methyl-4-pyrazolyl]-2-trans-propen-1-yl]-7,9-difluoro-2,3,4,4a,5,6-hexahydro-1H-pyrazino[1,2-a]quinoline hydrochloride (isomer B)]
[1]
  GI50: 0.725 ng/mL

## Cc1c(/C=C/CN2CCN3c4cc(F)cc(F)c4CCC3C2)cnn1-c1cc(N(CCO)CCO)nc(N)n1 (single isomer, unassigned; isomer b) [Example 29, 3-[3-[1-[2-Amino-6-di(2-hydroxyethyl)amino-4-pyrimidinyl]-5-methyl-4-pyrazolyl]-2-trans-propen-1-yl]-7,9-difluoro-2,3,4,4a,5,6-hexahydro-1H-pyrazino[1,2-a]quinoline hydrochloride (isomer B)]
[1]
  GI50: 1.54 ng/mL

## O=c1[nH]cc(F)c(=O)[nH]1 [Example 5-FU, 5-FU, reference compound]
[1]
  GI50 Value: 35.5 ng/mL (≈ 0.273 µM)

## Cc1c(/C=C/CN2CCN(c3cc(F)cc(F)c3)CC2)cnn1-c1cc(NCCO)nc(N)n1.Cl [Example 11, 1-[1-[2-Amino-6-(2-hydroxyethyl)amino-4-pyrimidinyl]-5-methyl-4-pyrazolyl]-3-[4-(3,5-difluorophenyl)-1-piperazinyl]-1-trans-propene]
[1]
  GI50: 2.49 ng/mL

## Cc1c(/C=C/CN2CCN(c3cc(F)cc(F)c3)CC2)cnn1-c1cc(N(CCO)CCO)nc(N)n1.Cl [Example 12, 1-[1-[2-Amino-6-di(2-hydroxyethyl)amino-4-pyrimidinyl]-5-methyl-4-pyrazolyl]-3-(4-(3,5-difluorophenyl)-1-piperazinyl]-1-trans-propene hydrochloride]
[1]
  GI50: 1.6 ng/mL

## Cc1c(/C=C/CN2CCN(c3cc(F)cc(F)c3)CC2)cnn1-c1cc(N2CC(O)C2)nc(N)n1.Cl [Example 13, 1-[1-[2-Amino-6-(3-hydroxy-1-azetidinyl)-4-pyrimidinyl]-5-methyl-4-pyrazolyl]-3-[4-(3,5-difluorophenyl)-1-piperazinyl]-1-trans-propene hydrochloride]
[1]
  GI50: 0.601 ng/mL
Mice (Balb/c); dose 5 mg
  T/C (coordination inhibition positive mice/tested mice) After 1 hour: 0/6
  T/C (coordination inhibition positive mice/tested mice) After 4 hours: 0/6
Mice (Balb/c); dose 10 mg
  T/C (coordination inhibition positive mice/tested mice) After 1 hour: 0/6
  T/C (coordination inhibition positive mice/tested mice) After 4 hours: 0/6
Mice (Balb/c); dose 12 mg
  T/C (coordination inhibition positive mice/tested mice) After 1 hour: 1/6
  T/C (coordination inhibition positive mice/tested mice) After 4 hours: 2/6
[2]; oral 5 mg × 4 times (d7-10)
  antitumor effect (IR): 5 mg × 4 times (IR 92%)*

## Cc1c(/C=C/CN2CCN(c3cc(F)cc(F)c3)CC2)cnn1-c1cc(NCCN)nc(N)n1.Cl [Example 15, 1-[1-[2-Amino-6-(2-aminoethyl)amino-4-pyrimidinyl]-5-methyl-4-pyrazolyl]-3-[4-(3,5-difluorophenyl)-1-piperazinyl]-1-trans-propene hydrochloride]
[1]
  GI50: 26.6 ng/mL

## Cc1c(/C=C/CN2CCN(c3cc(F)cc(F)c3)CC2)cnn1-c1cc(N2CC(N)C2)nc(N)n1.Cl [Example 19, 1-[1-[2-Amino-6-(3-amino-1-azetidinyl)-4-pyrimidinyl]-5-methyl-4-pyrazolyl]-3-[4-(3,5-difluorophenyl)-1-piperazinyl]-1-trans-propene hydrochloride]
[1]
  GI50: 2.35 ng/mL

## Cc1c(/C=C/CN2CCN(c3cc(F)cc(F)c3)CC2)cnn1-c1nc(N)cc(N2CC(O)C2)n1.Cl [Example 21, 1-[1-[4-Amino-6-(3-hydroxy-1-azetidinyl)-2-pyrimidinyl]-5-methyl-4-pyrazolyl]-3-[4-(3,5-difluorophenyl)-1-piperazinyl]-1-trans-propene hydrochloride]
[1]
  GI50: 3.39 ng/mL

## Cc1c(/C=C/CN2CCN(c3cc(F)cc(F)c3)CC2)cnn1-c1nc(N)cc(N2CCC2)n1 [Example 26, 1-[[4-Amino-6-(1-azetidinyl)-2-pyrimidinyl]-5-methyl-4-pyrazolyl]-3-[4-(3,5-difluorophenyl)-1-piperazinyl]-1-trans-propene hydrochloride]
[1]
  GI50: 6.29 ng/mL

## Cc1c(/C=C/CN2CCN3c4cc(F)cc(F)c4CCC3C2)cnn1-c1cc(NCCO)nc(N)n1 (stereo not drawn) [Example 27, 3-[3-[1-[2-Amino-6-(2-hydroxyethyl)amino-4-pyrimidinyl]-5-methyl-4-pyrazolyl]-2-trans-propen-1-yl]-7,9-difluoro-2,3,4,4a,5,6-hexahydro-1H-pyrazino[1,2-a]quinoline hydrochloride]
[1]
  GI50: 9.3 ng/mL

## Cc1c(/C=C/CN2CCN(c3cc(F)cc(F)c3)CC2)cnn1-c1cc(N2CC(C)(O)C2)nc(N)n1.Cl [Example 54, 1-[1-[2-Amino-6-(3-hydroxy-3-methyl-1-azetidinyl)-4-pyrimidinyl]-5-methyl-4-pyrazolyl]-3-[4-(3,5-difluorophenyl)-1-piperazinyl]-1-trans-propene hydrochloride]
[1]
  GI50: 11.3 ng/mL
Mice (Balb/c); dose 10 mg
  T/C (coordination inhibition positive mice/tested mice) After 1 hour: 0/6
  T/C (coordination inhibition positive mice/tested mice) After 4 hours: 0/6
Mice (Balb/c); dose 30 mg
  T/C (coordination inhibition positive mice/tested mice) After 1 hour: 0/6
  T/C (coordination inhibition positive mice/tested mice) After 4 hours: 0/6
[2]; oral 10 mg × 4 times (d7-10)
  antitumor effect (IR): 10 mg × 4 times (IR 89%)*
